Converted amounts (≈) assume the structure as drawn. Like-named read-outs stand apart in the source and are kept apart here.
How the values were obtained:
[1] = test system: Botrytis cinerea; assay: Painting on base, lid or base and lid of clamshells; strawberries (Example 6); format: in vivo
Protocol: Five milligrams of Compound A was dissolved in 1 ml of ethanol prior to being uniformly administered to the interior of the clamshell by painting or spraying, and then dried for 5 minutes. After coating the clamshells with Compound A using various application techniques (i.e., sublimation, spraying, or painting), eight ethanol-washed strawberries were placed in the clamshell with stem end facing downwards. Each strawberry fruit was wounded using a T15 screwdriver tip to a uniform depth of eight mm (8 mm). […] Uninoculated strawberries were removed from their commercial package, and directly transferred into treated clamshells without any washing or inoculation steps.
Treated clamshells lids were closed, and then placed at 1° C. for an initial time period of 5 days. Clamshells were then removed from low temperature, and held for a second time period of 6 days at room temperature where the point of inoculation on the strawberry fruits was assessed for indication of disease incidence reported as a percentage (%). Severity of disease incidence was also reported.
This in vivo assay was used to evaluate the ability of Compound A to volatilize from different locations of a clamshell (i.e., the base and/or the lid of the clamshell) in order to control or inhibit fruit infection by pathogenic microorganism, Botrytis cinerea. This experiment was conducted exactly as described in Example 1, with a few exceptions. Compound A was administered to the clamshell by painting only. 5 mg of Compound A was painted onto the surface of the base of the clamshell or the lid of the clamshell (i.e., 5 mg/clamshell treatment rate). 2.5 mg of Compound A was painted onto the base and the lid of the clamshell (for a total of 5 mg/clamshell treatment rate). The clamshell was then permitted to dry for 5 minutes. Strawberries were inoculated with Botrytis cinerea, placed within the clamshell for an initial time period of 5 days, and assessed for disease incidence and severity over a second time period of 7 days as described in Example 1.

[2] = test system: C. krusei (or I. orientalis); assay: In vitro volatile assay, yeast infection species (Example 27); format: cell-based, Issatchenkia orientalis; conditions: Pichia kudriavzevii
Protocol: More specifically, growth inhibition of yeast infection fungal species C. albicans and C. krusei (or I. orientalis) by volatile treatment of Compound 10 was assessed via a volatile assay.
Volatile assay: 6-well (16.5 mL volume per well) microtiter plates are used in an in vitro inhibition assay for Compound 10 (i.e., Compound A). A 7.5-mL volume of half strength PDA is added to each well. After drying, a mycelial plug (5 mm diameter) is aseptically obtained from actively growing cultures of C. albicans and C. krusei (or I. orientalis) and placed at the center of the plate with the mycelial side in contact with the agar. A Whatman #1 filter disk (Cat. No. 1001-325) is placed, in duplicate, on the underside of a polyethylene PCR plate sealing film. […] The acetone/methanol is permitted to evaporate for 5 minutes. The headspace around the inoculum is then sealed inside the well by the film with the adhering disk containing the fungicide and incubated inverted for 5 days at 28° C.

[3] = test system: Penicillium expansum; assay: Blue mold on apple, volatile assay; format: in vivo
Protocol: Compound A is mixed with acetone and 250 μL of the mixture is pipetted into a small glass tube. […] After incubation, fruits are evaluated by measuring the diameter (mm) of rot development (browning) up to 7 days at 21° C.

[4] = test system: Penicillium digitatum; assay: Green mold on orange, volatile assay (Example 25); format: in vivo; conditions: 50 mg/L, day 3 at 21 C after 5 days at 1 C
[5] = Inoculated Fruit, painted on Base and Lid, 2.5/2.5 mg, Day 0
[6] = Inoculated Fruit, painted on Base and Lid, 2.5/2.5 mg, Day 1
[7] = Inoculated Fruit, painted on Base and Lid, 2.5/2.5 mg, Day 2
[8] = Inoculated Fruit, painted on Base and Lid, 2.5/2.5 mg, Day 3
[9] = Inoculated Fruit, painted on Base and Lid, 2.5/2.5 mg, Day 4
[10] = Inoculated Fruit, painted on Base and Lid, 2.5/2.5 mg, Day 5
[11] = Inoculated Fruit, painted on Base and Lid, 2.5/2.5 mg, Day 6
[12] = Inoculated Fruit, painted on Base and Lid, 2.5/2.5 mg, Day 7
[13] = Inoculated Fruit, painted on Base, 5 mg, Day 7
[14] = Uninoculated Fruit, painted on Base, 5 mg, Day 0
[15] = Uninoculated Fruit, painted on Base, 5 mg, Day 1
[16] = Uninoculated Fruit, painted on Base, 5 mg, Day 2
[17] = Uninoculated Fruit, painted on Base, 5 mg, Day 3
[18] = Uninoculated Fruit, painted on Base, 5 mg, Day 4

SMILES: OB1OCc2cc(F)ccc21 [Compound A, 5-fluoro-1,3-dihydro-1-hydroxy-2,1-benzoxaborole]
- Gray Mold Incidence (%) [1, 5]: 0.0%
- Gray Mold Severity (0-4) [1, 5]: 0.0
- Gray Mold Incidence (%) [1, 6]: 0.0%
- Gray Mold Severity (0-4) [1, 6]: 0.0
- Gray Mold Incidence (%) [1, 7]: 0.0%
- Gray Mold Severity (0-4) [1, 7]: 0.0
- Gray Mold Incidence (%) [1, 8]: 0.0%
- Gray Mold Severity (0-4) [1, 8]: 0.0
- Gray Mold Incidence (%) [1, 9]: 0.0%
- Gray Mold Severity (0-4) [1, 9]: 0.0
- Gray Mold Incidence (%) [1, 10]: 0.0%
- Gray Mold Severity (0-4) [1, 10]: 0.0
- Gray Mold Incidence (%) [1, 11]: 0.0%
- Gray Mold Severity (0-4) [1, 11]: 0.0
- Gray Mold Incidence (%) [1, 12]: 0.0%
- Gray Mold Severity (0-4) [1, 12]: 0.0
- Gray Mold Severity (0-4) ([1]; Inoculated Fruit, painted on Base, 5 mg, Day 0): 0.0
- Gray Mold Severity (0-4) ([1]; Inoculated Fruit, painted on Base, 5 mg, Day 1): 0.0
- Gray Mold Severity (0-4) ([1]; Inoculated Fruit, painted on Base, 5 mg, Day 2): 0.1
- Gray Mold Severity (0-4) ([1]; Inoculated Fruit, painted on Base, 5 mg, Day 3): 0.1
- Gray Mold Severity (0-4) ([1]; Inoculated Fruit, painted on Base, 5 mg, Day 4): 0.0
- Gray Mold Severity (0-4) ([1]; Inoculated Fruit, painted on Base, 5 mg, Day 5): 0.0
- Gray Mold Severity (0-4) ([1]; Inoculated Fruit, painted on Base, 5 mg, Day 6): 0.2
- Gray Mold Incidence (%) [1, 13]: 18.8%
- Gray Mold Severity (0-4) [1, 13]: 0.3
- Gray Mold Severity (0-4) ([1]; Inoculated Fruit, painted on Lid, 5 mg, Day 0): 0.0
- Gray Mold Severity (0-4) ([1]; Inoculated Fruit, painted on Lid, 5 mg, Day 1): 0.0
- Gray Mold Severity (0-4) ([1]; Inoculated Fruit, painted on Lid, 5 mg, Day 2): 0.0
- Gray Mold Severity (0-4) ([1]; Inoculated Fruit, painted on Lid, 5 mg, Day 3): 0.0
- Gray Mold Severity (0-4) ([1]; Inoculated Fruit, painted on Lid, 5 mg, Day 4): 0.0
- Gray Mold Severity (0-4) ([1]; Inoculated Fruit, painted on Lid, 5 mg, Day 5): 0.0
- Gray Mold Severity (0-4) ([1]; Inoculated Fruit, painted on Lid, 5 mg, Day 6): 0.0
- Gray Mold Severity (0-4) ([1]; Inoculated Fruit, painted on Lid, 5 mg, Day 7): 0.0
- Gray Mold Severity (0-4) ([1]; Uninoculated Fruit, painted on Base and Lid, 2.5/2.5 mg, Day 0): 0.0
- Gray Mold Severity (0-4) ([1]; Uninoculated Fruit, painted on Base and Lid, 2.5/2.5 mg, Day 1): 0.0
- Gray Mold Severity (0-4) ([1]; Uninoculated Fruit, painted on Base and Lid, 2.5/2.5 mg, Day 2): 0.0
- Gray Mold Severity (0-4) ([1]; Uninoculated Fruit, painted on Base and Lid, 2.5/2.5 mg, Day 3): 0.2
- Gray Mold Severity (0-4) ([1]; Uninoculated Fruit, painted on Base and Lid, 2.5/2.5 mg, Day 4): 0.8
- Gray Mold Severity (0-4) ([1]; Uninoculated Fruit, painted on Base and Lid, 2.5/2.5 mg, Day 5): 1.5
- Gray Mold Severity (0-4) ([1]; Uninoculated Fruit, painted on Base and Lid, 2.5/2.5 mg, Day 6): 1.5
- Gray Mold Severity (0-4) ([1]; Uninoculated Fruit, painted on Base and Lid, 2.5/2.5 mg, Day 7): 1.5
- Gray Mold Incidence (%) [1, 14]: 0.0%
- Gray Mold Severity (0-4) [1, 14]: 0.0
- Gray Mold Incidence (%) [1, 15]: 0.0%
- Gray Mold Severity (0-4) [1, 15]: 0.0
- Gray Mold Incidence (%) [1, 16]: 0.0%
- Gray Mold Severity (0-4) [1, 16]: 0.0
- Gray Mold Incidence (%) [1, 17]: 0.0%
- Gray Mold Severity (0-4) [1, 17]: 0.0
- Gray Mold Incidence (%) [1, 18]: 2.2%
- Gray Mold Severity (0-4) [1, 18]: 0.3
- Gray Mold Severity (0-4) ([1]; Uninoculated Fruit, painted on Base, 5 mg, Day 5): 0.8
- Gray Mold Severity (0-4) ([1]; Uninoculated Fruit, painted on Base, 5 mg, Day 6): 1.2
- Gray Mold Severity (0-4) ([1]; Uninoculated Fruit, painted on Base, 5 mg, Day 7): 1.5
- Gray Mold Severity (0-4) ([1]; Uninoculated Fruit, painted on Lid, 5 mg, Day 0): 0.0
- Gray Mold Severity (0-4) ([1]; Uninoculated Fruit, painted on Lid, 5 mg, Day 1): 0.0
- Gray Mold Severity (0-4) ([1]; Uninoculated Fruit, painted on Lid, 5 mg, Day 2): 0.0
- Gray Mold Severity (0-4) ([1]; Uninoculated Fruit, painted on Lid, 5 mg, Day 3): 0.2
- Gray Mold Severity (0-4) ([1]; Uninoculated Fruit, painted on Lid, 5 mg, Day 4): 1.2
- Gray Mold Severity (0-4) ([1]; Uninoculated Fruit, painted on Lid, 5 mg, Day 5): 2.0
- Gray Mold Severity (0-4) ([1]; Uninoculated Fruit, painted on Lid, 5 mg, Day 6): 2.0
- Gray Mold Severity (0-4) ([1]; Uninoculated Fruit, painted on Lid, 5 mg, Day 7): 2.5
- MIC ([2]; 120 h, read-out: minimum inhibitory concentration (MIC) for C. krusei): 35.7 µg/mL (≈ 235 µM)
- inhibition at 0.017 µg/mL ([2]; volatile, 0.017 mg/L, read-out: Growth Inhibition (%) C. krusei/I. orientalis): -1.3%
- inhibition at 0.035 µg/mL ([2]; volatile, 0.035 mg/L, read-out: Growth Inhibition (%) C. krusei/I. orientalis): -1.4%
- inhibition at 0.07 µg/mL ([2]; volatile, 0.07 mg/L, read-out: Growth Inhibition (%) C. krusei/I. orientalis): 0.5%
- inhibition at 0.1 µg/mL ([2]; volatile, 0.1 mg/L, read-out: Growth Inhibition (%) C. krusei/I. orientalis): 0.4%
- inhibition at 0.3 µg/mL ([2]; volatile, 0.3 mg/L, read-out: Growth Inhibition (%) C. krusei/I. orientalis): 1.2%
- inhibition at 0.6 µg/mL ([2]; volatile, 0.6 mg/L, read-out: Growth Inhibition (%) C. krusei/I. orientalis): -5.2%
- inhibition at […] ([2]; volatile, 1.1 mg/L, read-out: Growth Inhibition (%) C. krusei/I. orientalis): -0.2%
- inhibition at […] ([2]; volatile, 2.2 mg/L, read-out: Growth Inhibition (%) C. krusei/I. orientalis): 18.2%
- inhibition at […] ([2]; volatile, 4.5 mg/L, read-out: Growth Inhibition (%) C. krusei/I. orientalis): 22%
- inhibition at […] ([2]; volatile, 8.9 mg/L, read-out: Growth Inhibition (%) C. krusei/I. orientalis): 30.5%
- Browning Rot (diameter; mm) ([3]; 0.02 mg/L, Day 0): 0.0 mm
- Browning Rot (diameter; mm) ([3]; 0.02 mg/L, Day 2): 0.9 mm
- Browning Rot (diameter; mm) ([3]; 0.02 mg/L, Day 4): 2.8 mm
- Browning Rot (diameter; mm) ([3]; 0.02 mg/L, Day 7): 6.9 mm
- Browning Rot (diameter; mm) ([3]; 0.1 mg/L, Day 0): 0.0 mm
- Browning Rot (diameter; mm) ([3]; 0.1 mg/L, Day 2): 0.0 mm
- Browning Rot (diameter; mm) ([3]; 0.1 mg/L, Day 4): 0.3 mm
- Browning Rot (diameter; mm) ([3]; 0.1 mg/L, Day 7): 2.0 mm
- Browning Rot (diameter; mm) ([3]; 0.5 mg/L, Day 0): 0.0 mm
- Browning Rot (diameter; mm) ([3]; 0.5 mg/L, Day 2): 0.0 mm
- Browning Rot (diameter; mm) ([3]; 0.5 mg/L, Day 4): 0.0 mm
- Browning Rot (diameter; mm) ([3]; 0.5 mg/L, Day 7): 0.4 mm
- Browning Rot (diameter; mm) ([3]; 2.5 mg/L, Day 0): 0.0 mm
- Browning Rot (diameter; mm) ([3]; 2.5 mg/L, Day 2): 0.0 mm
- Browning Rot (diameter; mm) ([3]; 2.5 mg/L, Day 4): 0.0 mm
- Browning Rot (diameter; mm) ([3]; 2.5 mg/L, Day 7): 0.0 mm
- Orange Sporulation (mm) [4]: 0.0 mm
